Data published in ChEMBL document CHEMBL4261597, “1,2,3-Triazole fused with pyridine/pyrimidine as new template for antimicrobial agents: Regioselective synthesis and identification of potent N-heteroarenes” (2018).
Active and inactive are the calls of the source. No cut-off for these calls is given here.

Columns and labels:
Bacillus subtilis [1] = assay: Antibacterial activity against Bacillus subtilis assessed as zone of inhibition at 10 ug after 24 hrs; format: functional; details: for zone of inhibition at 10 µg/disc: read-out: DIZ
Escherichia coli [2] = assay: Antibacterial activity against Escherichia coli assessed as zone of inhibition at 10 ug after 24 hrs; format: functional; details: for zone of inhibition at 10 µg/disc: read-out: DIZ
Bacillus subtilis [3] = assay: Antibacterial activity against Bacillus subtilis after 24 hrs; format: functional
Escherichia coli [4] = assay: Antibacterial activity against Escherichia coli after 24 hrs; format: functional
Fusarium oxysporum [5] = assay: Antifungal activity against Fusarium oxysporum lycopersici assessed as zone of inhibition at 10 ug after 48 hrs; format: functional, Fusarium oxysporum f. sp. lycopersici; details: read-out: DIZ
Fusarium [6] = assay: Antifungal activity against Fusarium recini assessed as zone of inhibition at 10 ug after 48 hrs; format: functional; details: read-out: DIZ
Fusarium oxysporum [7] = assay: Antifungal activity against Fusarium oxysporum lycopersici after 48 hrs; format: functional, Fusarium oxysporum f. sp. lycopersici
Fusarium [8] = assay: Antifungal activity against Fusarium recini after 48 hrs; format: functional
Bacillus subtilis [9] = assay: Antibacterial activity against Bacillus subtilis at 25 to 100 ug after 24 hrs; format: functional, organism-based
Escherichia coli [10] = assay: Antibacterial activity against Escherichia coli at 25 to 100 ug after 24 hrs; format: functional, organism-based

| Structure (SMILES) | MIC (Bacillus subtilis [3]) [µg] | MIC (Escherichia coli [4]) [µg] | MIC (Fusarium oxysporum [7]) [µg] | MIC (Fusarium [8]) [µg] | zone of inhibition at 10 µg/disc (Bacillus subtilis [1]) [mm] | zone of inhibition at 10 µg/disc (Escherichia coli [2]) [mm] | zone of inhibition at 10 µg/disc (Fusarium oxysporum [5]) [mm] | zone of inhibition at 10 µg/disc (Fusarium [6]) [mm] | diameter of the inhibition zone (DIZ) (Bacillus subtilis [1]) | diameter of the inhibition zone (DIZ) (Escherichia coli [2]) | Activity (Bacillus subtilis [9]) | Activity (Escherichia coli [10]) |
| --- | --- | --- | --- | --- | --- | --- | --- | --- | --- | --- | --- | --- |
| CN[C@@H]1[C@H](O[C@H]2[C@H](O[C@H]3[C@H](O)[C@@H](O)[C@H](N=C(N)N)[C@@H](O)[C@@H]3N=C(N)N)O[C@@H](C)[C@]2(O)C=O)O[C@@H](CO)[C@H](O)[C@H]1O [STREPTOMYCIN] | 25 | 25 | – | – | 16 | 13 | – | – | – | – | – | – |
| Oc1ncnc2c1nnn2Cc1ccccc1 | – | – | 100 | 50 | – | – | 5 | 6 | inactive | inactive | inactive | inactive |
| Clc1cc2c(cn1)nnn2C1CCOCC1 | – | – | 50 | 25 | – | – | 6 | 6 | inactive | inactive | – | – |
| Clc1cc2c(cn1)nnn2Cc1ccccc1 | 25 | 25 | 100 | 25 | 13 | 10 | 1 | 7 | – | – | – | – |

Further lines, with some results ahead:

| MIC (Bacillus subtilis [3]) [µg] | MIC (Escherichia coli [4]) [µg] | MIC (Fusarium oxysporum [7]) [µg] | MIC (Fusarium [8]) [µg] | Structure (SMILES) | zone of inhibition at 10 µg/disc (Bacillus subtilis [1]) [mm] | zone of inhibition at 10 µg/disc (Escherichia coli [2]) [mm] | zone of inhibition at 10 µg/disc (Fusarium oxysporum [5]) [mm] | zone of inhibition at 10 µg/disc (Fusarium [6]) [mm] | diameter of the inhibition zone (DIZ) (Bacillus subtilis [1]) | diameter of the inhibition zone (DIZ) (Escherichia coli [2]) | Activity (Bacillus subtilis [9]) | Activity (Escherichia coli [10]) |
| --- | --- | --- | --- | --- | --- | --- | --- | --- | --- | --- | --- | --- |
| 25 | 100 | 75 | 50 | Fc1ccc(-n2nnc3cccnc32)cc1 | 12 | 11 | 6 | 5 | – | – | – | – |
| – | – | 75 | 50 | c1cnc2c(c1)nnn2C1CCOCC1 | – | – | 3 | 5 | inactive | inactive | – | – |
| – | – | 100 | 50 | COc1ccc(-n2nnc3cccnc32)cc1 | – | – | 2 | 3 | inactive | inactive | – | – |
| – | – | 50 | 25 | COc1ccc(-n2nnc3cnc(Cl)cc32)cc1 | – | – | 6 | 7 | inactive | inactive | – | – |
| – | – | 50 | 50 | Fc1ccc(-n2nnc3cnc(Cl)cc32)cc1 | – | – | 3 | 7 | inactive | inactive | – | – |
| – | – | 75 | 100 | Cc1ccc(-n2nnc3cccnc32)c(C)c1 | – | – | 6 | 6 | inactive | inactive | – | – |
